Source: article PMC3608651, “A Broad Profile of Co-Dominant Epitopes Shapes the Peripheral Mycobacterium tuberculosis Specific CD8+ T-Cell Immune Response in South African Patients with Active Tuberculosis” (PLoS ONE, 2013)
Read-outs that look alike come from different tables or passages of the source. Marks after values point to notes of the source that are not given here.

Experiments:
HLA-A*68:01 = HLA-A*68:01 (Homo sapiens, UniProt P04439, A269V/D185E/E176V/E277Q/E87N/F33Y/G231S/I121M/I166T/I218V/L180W/L300P/L318F/N151K/P208A/P217A/Q86R/R169H/T345S); format: binding; conditions: percent relative the binding of positive control peptide […]; duplicated experiments; positive binder >40%
HLA-B*58:01 [1] = molecular target: T1, HLA-B*58:01 (Homo sapiens, UniProt P01889, A329T/C349S/D201E/D98Y/E176V/E187L/E204Q/E69T/G107R/I218V/I90N/K202T/L105A/L119I/N104I/N87E/Q89R/Q94S/R106L/R155S/R180L/R86G/S101N/S121R/S35A/S48A/T118I/V127L/V306I/V36M/Y140S/Y91M); format: binding; conditions: percent relative the binding of positive control peptide […]; duplicated experiments; positive binder >40%
HLA-B*58:01 [2] = molecular target: T1, HLA-B*58:01; format: binding
HLA-B*58:01 [3] = molecular target: T1, HLA-B*58:01; format: binding; conditions: time points 0-8 h
HLA-C*07:01 [4] = molecular target: T2, HLA-C*07:01 (Homo sapiens, UniProt P10321, K90N/S123Y); format: binding; conditions: percent relative the binding of positive control peptide […]; duplicated experiments; positive binder >40%
HLA-C*07:01 [5] = molecular target: T2, HLA-C*07:01; assay: affinity assay (ED50); format: binding
HLA-C*07:01 [6] = molecular target: T2, HLA-C*07:01; assay: off-rate assay (t1/2); format: binding; conditions: time points 0-8 h
HLA-A*02:01 [7] = molecular target: T3, HLA-A*02:01 (Homo sapiens, UniProt P04439, D140Y/D185E/D98H/E176V/E277Q/G131W/G231S/I119V/I121R/I166T/I218V/L300P/L318F/N151K/N90K/P208A/P217A/Q86G/Q94H/R138H/R169H/T345S); conditions: cited from earlier work
HLA-A*02:01 [8] = molecular target: T3, HLA-A*02:01; conditions: cited from earlier work; remark: listed apart in the source
HLA-A*02:01 [9] = molecular target: T3, HLA-A*02:01; conditions: cited from earlier work; remark: listed apart in the source
HLA-A*24:02 [10] = molecular target: T4, HLA-A*24:02 (Homo sapiens, UniProt P04439, D101N/D140Y/D185E/E176V/E190D/F33S/G103R/G107R/I119L/I121M/I306V/K335N/L105A/L180Q/L300P/N151K/N90K/Q86E/Q94H/R106L/R138H/R89G/T104I/T345S/V100E/W191G/Y123F); conditions: percent relative the binding of a positive control peptide; […]; cited from earlier work
HLA-A*24:02 [11] = molecular target: T4, HLA-A*24:02; conditions: cited from earlier work
HLA-A*24:02 [12] = molecular target: T4, HLA-A*24:02; conditions: cited from earlier work; remark: listed apart in the source
HLA-A*30:01 [13] = molecular target: T5, HLA-A*30:01 (Homo sapiens, UniProt P04439, D140H/D185E/E176W/F33S/G80R/H175R/K168Q/R138E/R41S); conditions: cited from earlier work
HLA-A*30:01 [14] = molecular target: T5, HLA-A*30:01; conditions: cited from earlier work; remark: listed apart in the source
HLA-A*30:01 [15] = molecular target: T5, HLA-A*30:01; conditions: cited from earlier work; remark: listed apart in the source
HLA-A*30:02 [16] = molecular target: T6, HLA-A*30:02 (Homo sapiens, UniProt P04439, D101N/D140H/D185E/E176R/F33S/G80R/H175R/K168Q/Q94H/R138E/R41S/V100E); conditions: cited from earlier work
HLA-A*30:02 [17] = molecular target: T6, HLA-A*30:02; conditions: cited from earlier work; remark: listed apart in the source
HLA-A*30:02 [18] = molecular target: T6, HLA-A*30:02; conditions: cited from earlier work; remark: listed apart in the source
HLA-B*07:02 [19] = molecular target: T7, HLA-B*07:02 (Homo sapiens, UniProt P01889); conditions: cited from earlier work
HLA-B*07:02 [20] = molecular target: T7, HLA-B*07:02; conditions: cited from earlier work; remark: listed apart in the source
HLA-B*07:02 [21] = molecular target: T7, HLA-B*07:02; conditions: cited from earlier work; remark: listed apart in the source
[22] = percent relative the binding of a positive control peptide, […]
[23] = percent relative the binding of a positive control peptide, wild-type epitopes marked **

IMYNYPAML [Rv0288_4–12]
Bind A*68:01 (HLA-A*68:01): 0%
Bind B*58:01 (HLA-B*58:01 [1]): 110%
Aff B*58:01 (ED50) (HLA-B*58:01 [2]): 0.2 µM
O-rate B*58:01 (t1/2) (HLA-B*58:01 [3]): 60 min
Bind C*07:01 (HLA-C*07:01 [4]): 67%
Aff C*07:01 (ED50) (HLA-C*07:01 [5]): 0.2 µM
O-rate C*07:01 (t1/2) (HLA-C*07:01 [6]): 12 min
Bind A*02:01 (HLA-A*02:01 [7]; [22]): 94* percent
Aff A*02:01 (ED50) (HLA-A*02:01 [8]): 800 nM
O-rate A*02:01 (t1/2) (HLA-A*02:01 [9]): 26.9 h
Bind A*24:02 (HLA-A*24:02 [10]): 107* percent
Aff A*24:02 (ED50) (HLA-A*24:02 [11]): 100 nM
O-rate A*24:02 (t1/2) (HLA-A*24:02 [12]): 96 min
Bind A*30:01 (HLA-A*30:01 [13]; [22]): 146** percent
Aff A*30:01 (ED50) (HLA-A*30:01 [14]): 5 µM
O-rate A*30:01 (t1/2) (HLA-A*30:01 [15]): 30 min
Bind A*30:02 (HLA-A*30:02 [16]): 91** percent
Aff A*30:02 (ED50) (HLA-A*30:02 [17]): 8 nM
O-rate A*30:02 (t1/2) (HLA-A*30:02 [18]): 3.1 h
Bind B*07:02 (HLA-B*07:02 [19]; [22]): 35* percent
Aff B*07:02 (ED50) (HLA-B*07:02 [20]): 30 µM
O-rate B*07:02 (t1/2) (HLA-B*07:02 [21]): 1.6 h

QIMYNYPAM [Rv0288_3–11wt]
Bind B*58:01 (HLA-B*58:01 [1]): 34%
Aff B*58:01 (ED50) (HLA-B*58:01 [2]): 10 µM
O-rate B*58:01 (t1/2) (HLA-B*58:01 [3]): 24 min
Bind A*02:01 (HLA-A*02:01 [7]): 68* percent
Aff A*02:01 (ED50) (HLA-A*02:01 [8]): 1000 nM
O-rate A*02:01 (t1/2) (HLA-A*02:01 [9]): 1.1 h
Bind A*24:02 (HLA-A*24:02 [10]): 55* percent
Aff A*24:02 (ED50) (HLA-A*24:02 [11]): 1000 nM
O-rate A*24:02 (t1/2) (HLA-A*24:02 [12]): 6 min
Bind A*30:01 (HLA-A*30:01 [13]): 163** percent
Aff A*30:01 (ED50) (HLA-A*30:01 [14]): 4 µM
O-rate A*30:01 (t1/2) (HLA-A*30:01 [15]): 48 min
Bind A*30:02 (HLA-A*30:02 [16]; [22]): 90** percent
Aff A*30:02 (ED50) (HLA-A*30:02 [17]): 40 nM
O-rate A*30:02 (t1/2) (HLA-A*30:02 [18]): 1.1 h
Bind B*07:02 (HLA-B*07:02 [19]): 28* percent
Aff B*07:02 (ED50) (HLA-B*07:02 [20]): 800 µM
O-rate B*07:02 (t1/2) (HLA-B*07:02 [21]): 1.5 h

RAYHAMSST [Rv0288_67–75wt]
Bind B*58:01 (HLA-B*58:01 [1]): 39%
Aff B*58:01 (ED50) (HLA-B*58:01 [2]): 10 µM
O-rate B*58:01 (t1/2) (HLA-B*58:01 [3]): 12 min
Bind C*07:01 (HLA-C*07:01 [4]): 35%
Aff C*07:01 (ED50) (HLA-C*07:01 [5]): 10 µM
O-rate C*07:01 (t1/2) (HLA-C*07:01 [6]): 12 min
Bind A*30:02 (HLA-A*30:02 [16]; [22]): 73** percent
Aff A*30:02 (ED50) (HLA-A*30:02 [17]): 1000 nM
O-rate A*30:02 (t1/2) (HLA-A*30:02 [18]): 1.2 h
Bind B*07:02 (HLA-B*07:02 [19]; [22]): 39* percent
Aff B*07:02 (ED50) (HLA-B*07:02 [20]): 20 µM
O-rate B*07:02 (t1/2) (HLA-B*07:02 [21]): 0.8 h

LVRAYHAMS [Rv0288_65–73wt]
Bind A*30:01 (HLA-A*30:01 [13]; [23]): 158** percent
Aff A*30:01 (ED50) (HLA-A*30:01 [14]; wild-type epitopes marked **): 2 µM
O-rate A*30:01 (t1/2) (HLA-A*30:01 [15]; wild-type epitopes marked **): 108 min
Bind A*30:02 (HLA-A*30:02 [16]; [23]): 75** percent
Aff A*30:02 (ED50) (HLA-A*30:02 [17]; wild-type epitopes marked **): 2000 nM
O-rate A*30:02 (t1/2) (HLA-A*30:02 [18]; wild-type epitopes marked **): 1.0 h
